Test results: ChEMBL document CHEMBL2073912, “Biochemical basis of polyvalency as a strategy for enhancing the efficacy of P-glycoprotein (ABCB1) modulators: stipiamide homodimers separated with defined-length spacers reverse drug efflux with greater efficacy” (Biochemistry, 2004)

Biological target: ATP-dependent translocase ABCB1 (Homo sapiens, UniProt P08183)
Test: TP_TRANSPORTER: increase in bodipy-FL-prazosin intracellular accumulation in MDR1-expressing NIH-3T3 cells
Type: functional, cell-based
Details: mouse, nih3t3

Chain of ATP-dependent translocase ABCB1 (P08183 whole entry): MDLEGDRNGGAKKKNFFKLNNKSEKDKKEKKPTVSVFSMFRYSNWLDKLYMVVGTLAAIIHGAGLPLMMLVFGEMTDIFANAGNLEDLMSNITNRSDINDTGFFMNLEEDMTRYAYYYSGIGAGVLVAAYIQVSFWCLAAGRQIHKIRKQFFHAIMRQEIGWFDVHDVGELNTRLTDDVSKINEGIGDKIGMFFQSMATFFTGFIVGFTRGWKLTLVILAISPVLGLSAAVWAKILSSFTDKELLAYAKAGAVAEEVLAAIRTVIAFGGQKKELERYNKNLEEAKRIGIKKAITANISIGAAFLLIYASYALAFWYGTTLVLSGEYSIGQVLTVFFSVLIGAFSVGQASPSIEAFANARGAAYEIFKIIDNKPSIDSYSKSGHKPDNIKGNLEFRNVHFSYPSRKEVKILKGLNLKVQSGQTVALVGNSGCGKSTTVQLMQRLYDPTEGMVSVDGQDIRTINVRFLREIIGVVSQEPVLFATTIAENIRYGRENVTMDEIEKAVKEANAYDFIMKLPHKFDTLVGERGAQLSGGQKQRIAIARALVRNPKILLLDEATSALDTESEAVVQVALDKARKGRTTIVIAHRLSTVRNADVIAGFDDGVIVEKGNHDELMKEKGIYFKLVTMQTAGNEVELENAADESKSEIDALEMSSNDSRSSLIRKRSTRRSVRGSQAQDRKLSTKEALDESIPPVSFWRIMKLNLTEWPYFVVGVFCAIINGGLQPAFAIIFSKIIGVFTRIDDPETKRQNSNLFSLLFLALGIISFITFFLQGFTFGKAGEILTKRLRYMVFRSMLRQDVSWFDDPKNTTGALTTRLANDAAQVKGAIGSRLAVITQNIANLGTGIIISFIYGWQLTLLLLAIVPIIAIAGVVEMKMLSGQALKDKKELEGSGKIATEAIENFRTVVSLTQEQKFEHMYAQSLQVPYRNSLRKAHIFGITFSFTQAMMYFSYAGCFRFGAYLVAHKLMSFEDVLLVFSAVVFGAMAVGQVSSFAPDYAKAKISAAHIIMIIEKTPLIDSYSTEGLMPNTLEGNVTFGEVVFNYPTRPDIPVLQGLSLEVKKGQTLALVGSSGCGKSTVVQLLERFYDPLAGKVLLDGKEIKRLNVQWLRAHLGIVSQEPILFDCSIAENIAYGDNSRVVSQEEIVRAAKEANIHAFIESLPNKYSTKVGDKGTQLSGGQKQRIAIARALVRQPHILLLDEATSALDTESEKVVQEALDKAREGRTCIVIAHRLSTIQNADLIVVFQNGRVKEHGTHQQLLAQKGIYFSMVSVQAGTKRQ

SMILES | Activity
C/C(=C\CCC#C/C=C/C(C)C(O)/C(C)=C/CCc1cccc2ccccc12)C(=O)NCCOCCOCCOCCOCCOCCOCCOCCOCCOCCOCCOCCOCNC(=O)/C(C)=C/CCC#C/C=C/C(C)C(O)/C(C)=C/CCc1ccc2ccccc2c1 (stereo unspecified) | inhibitor [+]
C/C(=C\CCC#C/C=C/C(C)C(O)/C(C)=C/CCc1cccc2ccccc12)C(=O)NCCOCCOCCOCCOCCOCCOCCOCCOCNC(=O)/C(C)=C/CCC#C/C=C/C(C)C(O)/C(C)=C/CCc1ccc2ccccc2c1 (stereo unspecified) | inhibitor [+]
C/C(=C\CCC#C/C=C/C(C)C(O)/C(C)=C/CCc1ccc2ccccc2c1)C(=O)NCCOCCOCCOCCOCCOCCNC(=O)/C(C)=C/CCC#C/C=C/C(C)C(O)/C(C)=C/CCc1cccc2ccccc12 (stereo unspecified) | inhibitor [+]
C/C(=C\CCC#C/C=C/C(C)C(O)/C(C)=C/CCc1cccc2ccccc12)C(=O)NCCOCCOCNC(=O)/C(C)=C/CCC#C/C=C/C(C)C(O)/C(C)=C/CCc1ccc2ccccc2c1 (stereo unspecified) | is not an inhibitor [-]
C/C(=C\CCC#C/C=C/C(C)C(O)/C(C)=C/CCc1ccc2ccccc2c1)C(=O)NCNC(=O)/C(C)=C/CCC#C/C=C/C(C)C(O)/C(C)=C/CCc1cccc2ccccc12 (stereo unspecified) | is not an inhibitor [-]
C/C(=C\CCC#C/C=C/C(C)C(O)/C(C)=C/CCc1cccc2ccccc12)C(=O)NCCOCCOCCOCCOCCOCCO (stereo unspecified) [STIPIAMIDE MONOMER] | is not an inhibitor [-]
